This passage reports EC50 and Emax results from patent US20240208992A1, “MACROCYCLES AS CFTR MODULATORS” (Idorsia Pharmaceuticals Ltd, priority 2021, published 2024).

Structures are written as SMILES.

This test concerns the target human F508del-CFTR (Homo sapiens, UniProt P13569, DEL508-508). The experiment in a line: F508del-CFTR cell surface expression (corrector activity), DiscoveRx ß-galactosidase complementation chemiluminescence assay in recombinant U2OS cell line.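 For all read-outs here: U2OS cells co-expressing ProLink-tagged F508del-CFTR and a membrane-anchored enzyme acceptor, where more surface CFTR restores β-galactosidase activity measured by chemiluminescence.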 To be noted: U2OS cells, 16h compound incubation; for EC50: geomean of several measurements; for Emax: in relation to the Emax of the corrector lumacaftor (=100%), arithmetic mean.

The mark [1] stands for this setting: EC50, F508del-CFTR cell surface expression.

human F508del-CFTR, sequence (P13569 with tags, fused parts or gaps DEL508-508): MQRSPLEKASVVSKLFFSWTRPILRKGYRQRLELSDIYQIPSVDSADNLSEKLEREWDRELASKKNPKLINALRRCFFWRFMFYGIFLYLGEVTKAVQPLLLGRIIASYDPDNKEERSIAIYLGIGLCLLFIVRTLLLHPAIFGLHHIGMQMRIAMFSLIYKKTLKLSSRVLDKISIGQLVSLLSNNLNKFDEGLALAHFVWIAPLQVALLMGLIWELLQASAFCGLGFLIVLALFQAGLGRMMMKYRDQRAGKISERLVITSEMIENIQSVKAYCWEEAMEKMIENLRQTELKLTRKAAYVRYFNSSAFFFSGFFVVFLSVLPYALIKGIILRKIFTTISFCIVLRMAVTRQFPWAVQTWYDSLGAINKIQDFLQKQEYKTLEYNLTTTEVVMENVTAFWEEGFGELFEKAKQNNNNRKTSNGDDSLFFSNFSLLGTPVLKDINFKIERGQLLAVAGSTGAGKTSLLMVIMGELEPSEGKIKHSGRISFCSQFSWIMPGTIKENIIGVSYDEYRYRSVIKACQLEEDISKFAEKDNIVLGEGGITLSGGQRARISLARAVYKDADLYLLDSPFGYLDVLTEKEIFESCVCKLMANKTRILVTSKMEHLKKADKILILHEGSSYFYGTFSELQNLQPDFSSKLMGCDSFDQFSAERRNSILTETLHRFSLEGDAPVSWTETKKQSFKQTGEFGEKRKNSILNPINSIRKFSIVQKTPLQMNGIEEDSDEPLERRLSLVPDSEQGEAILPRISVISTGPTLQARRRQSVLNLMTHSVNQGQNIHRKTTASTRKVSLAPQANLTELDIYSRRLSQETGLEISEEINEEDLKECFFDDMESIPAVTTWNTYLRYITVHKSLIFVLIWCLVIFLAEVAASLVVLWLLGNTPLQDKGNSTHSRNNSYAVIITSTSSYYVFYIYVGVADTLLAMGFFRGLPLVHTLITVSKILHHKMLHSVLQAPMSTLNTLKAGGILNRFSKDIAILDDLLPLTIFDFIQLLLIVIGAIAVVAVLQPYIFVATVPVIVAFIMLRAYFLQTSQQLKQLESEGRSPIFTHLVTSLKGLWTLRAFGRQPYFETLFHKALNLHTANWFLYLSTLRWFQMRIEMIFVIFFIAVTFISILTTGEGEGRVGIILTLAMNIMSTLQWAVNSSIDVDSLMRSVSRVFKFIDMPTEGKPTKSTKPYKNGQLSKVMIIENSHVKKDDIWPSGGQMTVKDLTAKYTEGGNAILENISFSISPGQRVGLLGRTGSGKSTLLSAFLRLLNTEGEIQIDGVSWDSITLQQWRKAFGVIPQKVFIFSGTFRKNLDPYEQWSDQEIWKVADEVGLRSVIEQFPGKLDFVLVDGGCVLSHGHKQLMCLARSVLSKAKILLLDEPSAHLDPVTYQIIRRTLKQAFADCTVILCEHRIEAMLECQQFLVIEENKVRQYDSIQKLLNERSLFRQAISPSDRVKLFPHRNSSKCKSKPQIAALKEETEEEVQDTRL

As to `CC(C)C[C@H]1C(=O)N(C)[C@@H](Cc2nc(C(F)(F)F)no2)C(=O)N[C@H](Cc2ccccc2)COc2cnc3ccc(F)cc3c2C(=O)N[C@H](C(=O)NCCc2noc(C3CC3)n2)CC(=O)N1C` [Example 812, (3S,7S,10S,13R)-13-benzyl-N-(2-(5-cyclopropyl-1,2,4-oxadiazol-3-yl)ethyl)-20-fluoro-7-isobutyl-6,9-dimethyl-1,5,8,11-tetraoxo-10-((3-(trifluoromethyl)-1,2,4-oxadiazol-5-yl)methyl)-1,2,3,4,5,6,7,8,9,10,11,12,13,14-tetradecahydro-[1]oxa[4,7,10,14]tetraazacycloheptadecino[17,16-c]quinoline-3-carboxamide], under setting [1], the EC50 (in general, the midpoint of the concentration-response curve) came to 127 nM. Moreover, the Emax (in general, the greatest response seen or fitted, relative to the assay's reference) (U2OS) worked out at 280%.

Regarding `CC(C)C[C@H]1C(=O)N(C)[C@H](Cc2nc(-c3ccc(F)cn3)no2)C(=O)N[C@H](Cc2ccccc2)COc2cnc3ccc(F)cc3c2C(=O)N[C@H](C(=O)NCCc2noc(C3CC3)n2)CC(=O)N1C` [Example 813, (3S,7S,10R,13R)-13-benzyl-N-(2-(5-cyclopropyl-1,2,4-oxadiazol-3-yl)ethyl)-20-fluoro-10-((3-(5-fluoropyridin-2-yl)-1,2,4-oxadiazol-5-yl)methyl)-7-isobutyl-6,9-dimethyl-1,5,8,11-tetraoxo-1,2,3,4,5,6,7,8,9,10,11,12,13,14-tetradecahydro-[1]oxa[4,7,10,14]tetraazacycloheptadecino[17,16-c]quinoline-3-carboxamide], under setting [1], the EC50 was 110 nM. Moreover, under “U2OS”, the Emax was determined as 346%.

On to `CC(C)C[C@H]1C(=O)N(C)[C@@H](Cc2nc(-c3ccc(F)cn3)no2)C(=O)N[C@H](Cc2ccccc2)COc2cnc3ccc(F)cc3c2C(=O)N[C@H](C(=O)NCCc2noc(C3CC3)n2)CC(=O)N1C` [Example 814, (3S,7S,10S,13R)-13-benzyl-N-(2-(5-cyclopropyl-1,2,4-oxadiazol-3-yl)ethyl)-20-fluoro-10-((3-(5-fluoropyridin-2-yl)-1,2,4-oxadiazol-5-yl)methyl)-7-isobutyl-6,9-dimethyl-1,5,8,11-tetraoxo-1,2,3,4,5,6,7,8,9,10,11,12,13,14-tetradecahydro-[1]oxa[4,7,10,14]tetraazacycloheptadecino[17,16-c]quinoline-3-carboxamide], for which the Emax came to 242%. Also, the EC50 (F508del-CFTR cell surface expression) came out at 631 nM.

As for `COc1cc(CCNC(=O)[C@@H]2CC(=O)N(C)[C@@H](CC(C)C)C(=O)N(C)[C@H](Cc3nc(-c4ccc(F)cn4)no3)C(=O)N[C@H](Cc3ccccc3)COc3cnc4ccc(F)cc4c3C(=O)N2)on1` [Example 815, (3S,7S,10R,13R)-13-benzyl-20-fluoro-10-((3-(5-fluoropyridin-2-yl)-1,2,4-oxadiazol-5-yl)methyl)-7-isobutyl-N-(2-(3-methoxyisoxazol-5-yl)ethyl)-6,9-dimethyl-1,5,8,11-tetraoxo-1,2,3,4,5,6,7,8,9,10,11,12,13,14-tetradecahydro-[1]oxa[4,7,10,14]tetraazacycloheptadecino[17,16-c]quinoline-3-carboxamide], under setting [1], the EC50 worked out at 128 nM. Also, the Emax (U2OS) is 413%.

Regarding `COc1cc(CCNC(=O)[C@@H]2CC(=O)N(C)[C@@H](CC(C)C)C(=O)N(C)[C@@H](Cc3nc(-c4ccc(F)cn4)no3)C(=O)N[C@H](Cc3ccccc3)COc3cnc4ccc(F)cc4c3C(=O)N2)on1` [Example 816, (3S,7S,10S,13R)-13-benzyl-20-fluoro-10-((3-(5-fluoropyridin-2-yl)-1,2,4-oxadiazol-5-yl)methyl)-7-isobutyl-N-(2-(3-methoxyisoxazol-5-yl)ethyl)-6,9-dimethyl-1,5,8,11-tetraoxo-1,2,3,4,5,6,7,8,9,10,11,12,13,14-tetradecahydro-[1]oxa[4,7,10,14]tetraazacycloheptadecino[17,16-c]quinoline-3-carboxamide], the EC50 under setting [1] was determined as 741 nM. Moreover, for the setting “U2OS”, the Emax stood at 286%.

For the molecule `CC(C)C[C@H]1C(=O)N(C)C2(CC2)C(=O)N[C@H](Cc2ccccc2)COc2ccc3ncc(F)cc3c2C(=O)N[C@H](C(=O)NCCn2nnc(C3CC3)n2)CC(=O)N1C` [Example 817, (3′S,7′S,13′R)-13′-benzyl-N-(2-(5-cyclopropyl-2H-tetrazol-2-yl)ethyl)-20′-fluoro-7′-isobutyl-6′,9′-dimethyl-1′,5′,8′,11′-tetraoxo-2′,3′,4′,5′,6′,7′,8′,9′,11′,12′,13′,14′-dodecahydro-1′H-spiro[cyclopropane-1,10′-[1]oxa[4,7,10,14]tetraazacycloheptadecino[16,17-f]quinoline]-3′-carboxamide], the EC50 under setting [1] was 420 nM. Also, the Emax (U2OS) was determined as 375%.

`COc1cc(CCNC(=O)[C@@H]2CC(=O)N(C)[C@@H](CC(C)C)C(=O)N(C)C3(CC3)C(=O)N[C@H](Cc3ccccc3)COc3ccc4ncc(F)cc4c3C(=O)N2)on1` [Example 818, (3′S,7′S,13′R)-13′-benzyl-20′-fluoro-7′-isobutyl-N-(2-(3-methoxyisoxazol-5-yl)ethyl)-6′,9′-dimethyl-1′,5′,8′,11′-tetraoxo-2′,3′,4′,5′,6′,7′,8′,9′,11′,12′,13′,14′-dodecahydro-1′H-spiro[cyclopropane-1,10′-[1]oxa[4,7,10,14]tetraazacycloheptadecino[16,17-f]quinoline]-3′-carboxamide]: under setting [1], the EC50 was determined as 385 nM. Further, for the setting “U2OS”, the Emax was found to be 359%.

Regarding `COc1cc(CCNC(=O)[C@@H]2CC(=O)N(C)[C@@H](CC(C)C)C(=O)N(C)[C@H](CC(F)F)C(=O)N[C@H](Cc3ccccc3)COc3ccc4ncc(F)cc4c3C(=O)N2)on1` [Example 819, (3S,7S,10R,13R)-13-benzyl-10-(2,2-difluoroethyl)-20-fluoro-7-isobutyl-N-(2-(3-methoxyisoxazol-5-yl)ethyl)-6,9-dimethyl-1,5,8,11-tetraoxo-1,2,3,4,5,6,7,8,9,10,11,12,13,14-tetradecahydro-[1]oxa[4,7,10,14]tetraazacycloheptadecino[16,17-f]quinoline-3-carboxamide], the EC50 under setting [1] amounted to 276 nM. The maximal response (Emax) (U2OS) stood at 431%.

For `COc1nc(C)cc2c1C(=O)N[C@H](C(=O)NCCc1noc(C3CC3)n1)CC(=O)N(C)[C@@H](CC(C)C)C(=O)N(C)[C@H](Cc1nc(C(F)(F)F)no1)C(=O)N[C@H](Cc1ccccc1)CO2` [Example 820, (3R,6R,9S,13S)-3-benzyl-N-(2-(5-cyclopropyl-1,2,4-oxadiazol-3-yl)ethyl)-9-isobutyl-16-methoxy-7,10,18-trimethyl-5,8,11,15-tetraoxo-6-((3-(trifluoromethyl)-1,2,4-oxadiazol-5-yl)methyl)-2,3,4,5,6,7,8,9,10,11,12,13,14,15-tetradecahydropyrido[3,4-p][1]oxa[4,7,10,14]tetraazacycloheptadecine-13-carboxamide], the EC50 under setting [1] came to 49 nM. Moreover, under “U2OS”, the Emax was 461%.

`COc1noc(CCNC(=O)[C@@H]2CC(=O)N(C)[C@@H](CC(C)C)C(=O)N3CCCC[C@@H]3C(=O)N[C@H](Cc3ccccc3)COc3ccc4ncc(F)cc4c3C(=O)N2)n1` [Example 821, (9S,13S,19aR,22R)-22-benzyl-5-fluoro-13-isobutyl-N-(2-(3-methoxy-1,2,4-oxadiazol-5-yl)ethyl)-12-methyl-7,11,14,20-tetraoxo-7,8,9,10,11,12,13,14,17,18,19,19a,20,21,22,23-hexadecahydro-16H-pyrido[2′,1′:6,7][1]oxa[4,7,10,14]tetraazacycloheptadecino[16,17-f]quinoline-9-carboxamide]: the EC50 under setting [1] came to 200 nM. Besides, where the note is “U2OS”, the Emax came to 392%.

`COc1cc(CCNC(=O)[C@@H]2CC(=O)N(C)[C@@H](CC(C)C)C(=O)N3CCCC[C@@H]3C(=O)N[C@H](Cc3ccccc3)COc3cc(C)c4ncccc4c3C(=O)N2)on1` [Example 822, (9S,13S,19aR,22R)-22-benzyl-13-isobutyl-N-(2-(3-methoxyisoxazol-5-yl)ethyl)-2,12-dimethyl-7,11,14,20-tetraoxo-7,8,9,10,11,12,13,14,17,18,19,19a,20,21,22,23-hexadecahydro-16H-pyrido[2′,1′:6,7][1]oxa[4,7,10,14]tetraazacycloheptadecino[16,17-f]quinoline-9-carboxamide]: the EC50 under setting [1] was found to be 131 nM. Also, the Emax (U2OS) was determined as 363%.

As for `Cc1cc2c3c(ccc2cn1)OC[C@@H](Cc1ccccc1)NC(=O)[C@H]1CCCCN1C(=O)[C@H](CC(C)C)N(C)C(=O)C[C@@H](C(=O)NCCn1nnc(C2CC2)n1)NC3=O` [Example 823, (9S,13S,19aR,22R)-22-benzyl-N-(2-(5-cyclopropyl-2H-tetrazol-2-yl)ethyl)-13-isobutyl-5,12-dimethyl-7,11,14,20-tetraoxo-7,8,9,10,11,12,13,14,17,18,19,19a,20,21,22,23-hexadecahydro-16H-pyrido[2′,1′:6,7][1]oxa[4,7,10,14]tetraazacycloheptadecino[16,17-f]isoquinoline-9-carboxamide], under setting [1], the concentration giving a half-maximal response (EC50) is 241 nM. In addition, the Emax (U2OS) worked out at 366%.

On to `Cc1cc2c3c(ccc2cn1)OC[C@@H](Cc1ccccc1)NC(=O)[C@@H](C)N(C)C(=O)[C@H](CC(C)C)N(C)C(=O)C[C@@H](C(=O)NCCc1cc(C)no1)NC3=O` [Example 824, (3S,7S,10R,13R)-13-benzyl-7-isobutyl-6,9,10,20-tetramethyl-N-(2-(3-methylisoxazol-5-yl)ethyl)-1,5,8,11-tetraoxo-1,2,3,4,5,6,7,8,9,10,11,12,13,14-tetradecahydro-[1]oxa[4,7,10,14]tetraazacycloheptadecino[16,17-f]isoquinoline-3-carboxamide], for which the EC50 under setting [1] was found to be 674 nM. Also, the Emax (U2OS) was found to be 354%.

`COc1cc(CCNC(=O)[C@@H]2CC(=O)N(C)[C@@H](CC(C)C)C(=O)N(C)[C@H](C)C(=O)N[C@H](Cc3ccccc3)COc3ccc4cnc(C)cc4c3C(=O)N2)on1` [Example 825, (3S,7S,10R,13R)-13-benzyl-7-isobutyl-N-(2-(3-methoxyisoxazol-5-yl)ethyl)-6,9,10,20-tetramethyl-1,5,8,11-tetraoxo-1,2,3,4,5,6,7,8,9,10,11,12,13,14-tetradecahydro-[1]oxa[4,7,10,14]tetraazacycloheptadecino[16,17-f]isoquinoline-3-carboxamide]: under setting [1], the EC50 turned out to be 353 nM. Besides, the Emax (U2OS) was determined as 388%.
